Columns and labels:
Mus musculus [1] = assay: Ability to suppress PTZ (pentylenetetrazole ) induced tonic extensor convulsion in mice after oral administration at a dose 50 mg/kg; format: functional
Mus musculus [2] = assay: Ability to suppress maximal electroshock induced tonic extensor convulsion in mice after oral administration at 50 mg/kg; format: functional
Mus musculus [3] = assay: Ability to suppress PTZ (pentylenetetrazole) induced tonic extensor convulsion in mice after oral administration at a dose 50 mg/kg; format: functional
Mus musculus [4] = assay: Ability to suppress MES (maximal electroshock ) induced tonic extensor convulsion in mice after oral administration at a dose 100 mg/kg; format: functional
Mus musculus [5] = assay: Ability to suppress PTZ (pentylenetetrazole) induced tonic extensor convulsion in mice after oral administration at a dose 25 mg/kg; format: functional
Mus musculus [6] = assay: Ability to suppress MES (maximal electroshock ) induced tonic extensor convulsion in mice after oral administration of the compound; format: functional
Mus musculus [7] = assay: Ability to suppress MES (maximal electroshock) induced tonic extensor convulsion in mice after oral administration at a dose 50 mg/kg; format: functional
Mus musculus [8] = assay: Ability to suppress PTZ (pentylenetetrazole ) induced tonic extensor convulsion in mice after oral administration of the compound; format: functional
Mus musculus [9] = assay: Ability to suppress PTZ (pentylenetetrazole) induced tonic extensor convulsion in mice after oral administration of the compound; format: functional
Rattus norvegicus [10] = species on record: Rattus norvegicus; assay: Ability to suppress PTZ (pentylenetetrazole) induced clonic convulsions seizures in male Wistar rats; format: functional
[11] = Ratio of the dose showing muscle relaxant action in rats and the dose suppressing MES induced seizures in rats; format: functional
Rattus norvegicus [12] = species on record: Rattus norvegicus; assay: Ability to suppress MES ( maximal electroshock ) induced seizures in male Wistar rats; format: functional
Rattus norvegicus [13] = species on record: Rattus norvegicus; assay: Muscle-relaxant action in vertical screen method.; format: functional
Rattus norvegicus [14] = species on record: Rattus norvegicus; assay: Ability to suppress MES (maximal electroshock) induced seizures in male Wistar rats; format: functional
Rattus norvegicus [15] = species on record: Rattus norvegicus; assay: Ratio of the dose showing muscle relaxant action in rats and the dose suppressing MES induced seizures in rats
Rattus norvegicus [16] = species on record: Rattus norvegicus; assay: Ability to suppress PTZ (convulsions seizures in male Wistar rats; format: functional
Rattus norvegicus [17] = species on record: Rattus norvegicus; assay: Muscle-relaxant action in vertical screen method; format: functional

Compound: CN(C)CCCCOc1ccccc1/C=C/c1cccc(F)c1
- inhibition in vivo at 50 mg/kg (Mus musculus [1]): 12.5%

Compound: CC1CCCN(CCCCOc2ccccc2/C=C/c2ccccc2)C1 (stereo not given)
- inhibition in vivo at 50 mg/kg (Mus musculus [2]): 12.5%

Compound: CN(C)CCCOc1ccccc1/C=C/c1ccccc1
- inhibition in vivo at 50 mg/kg (Mus musculus [3]): 87.5%
- inhibition in vivo at 50 mg/kg (Mus musculus [2]): 14.2%

Compound: CCCOC1CCCN(CCCCOc2ccccc2/C=C/c2ccccc2)C1 (stereo not given)
- inhibition in vivo at 50 mg/kg (Mus musculus [2]): 0%

Compound: CN1CCN(CCCCOc2ccccc2/C=C/c2ccccc2F)CC1
- inhibition in vivo at 50 mg/kg (Mus musculus [2]): 0%

Compound: CN(C)CCCCOc1ccccc1/C=C/c1ccccc1F
- inhibition in vivo at 50 mg/kg (Mus musculus [1]): 17%

Compound: CN(C)CCCCCOc1ccccc1/C=C/c1ccccc1
- inhibition in vivo at 100 mg/kg (Mus musculus [4]): 81%
- inhibition in vivo at 25 mg/kg (Mus musculus [5]): 75%

Compound: OCC1CCCN(CCCCOc2ccccc2/C=C/c2ccccc2)C1 (stereo not given)
- inhibition in vivo at 50 mg/kg (Mus musculus [2]): 12.5%

Compound: CN1CCN(CCCCOc2ccccc2/C=C/c2ccccc2)CC1.Cl.Cl
- ED50 (Mus musculus [6]): 31.1 mg/kg
- inhibition in vivo at 50 mg/kg (Mus musculus [7]): 0%
- ED50 (Mus musculus [8]): 11.1 mg/kg

Compound: CCOC1CCCN(CCCCOc2ccccc2/C=C/c2ccccc2)C1.Cl (stereo not given)
- ED50 (Mus musculus [6]): 17.5 mg/kg
- ED50 (Mus musculus [9]): 9.8 mg/kg

Compound: CC(=O)OC1CCCN(CCCCOc2ccccc2/C=C/c2ccccc2)C1.Cl (stereo not given)
- ED50 (Mus musculus [6]): 18.7 mg/kg
- ED50 (Mus musculus [9]): 7.9 mg/kg

Compound: OC1CCN(CCCCOc2ccccc2/C=C/c2ccccc2)CC1
- inhibition in vivo at 50 mg/kg (Mus musculus [2]): 0%
- inhibition in vivo at 50 mg/kg (Mus musculus [1]): 50%

Compound: COC1CCCN(CCCCOc2ccccc2/C=C/c2ccccc2)C1.Cl (stereo not given)
- ED50 (Mus musculus [6]): 12.6 mg/kg
- ED50 (Mus musculus [9]): 9.3 mg/kg

Compound: COc1cccc(OCCCCN2CCN(C)CC2)c1/C=C/c1ccccc1.Cl.Cl
- inhibition in vivo at 50 mg/kg (Mus musculus [2]): 42.9%
- ED50 (Mus musculus [8]): 50 mg/kg

Compound: CN1CCN(CCCCOc2ccccc2/C=C/c2ccc(F)cc2)CC1.Cl.Cl
- ED50 (Mus musculus [6]): 39 mg/kg
- ED50 (Mus musculus [8]): 17.7 mg/kg

Compound: Cl.OC1CCCN(CCCCOc2ccccc2/C=C/c2ccccc2)C1 (stereo not given)
- ED50 (Rattus norvegicus [10]): 248 mg/kg
- Therapeutic index [11]: >24
- ED50 (Rattus norvegicus [12]): 12.5 mg/kg
- ED50 (Mus musculus [6]): 20 mg/kg
- ED50 (Rattus norvegicus [13]): > 300 mg/kg

Compound: Cl.OC1CCCN(CCCCOc2ccccc2/C=C/c2ccc(F)cc2)C1 (stereo not given)
- ED50 (Mus musculus [6]): 21.9 mg/kg
- ED50 (Mus musculus [9]): 8.8 mg/kg

Compound: Cl.OC1CCCN(CCCCOc2ccccc2/C=C/c2cccc(F)c2)C1 (stereo not given)
- ED50 (Mus musculus [6]): 38 mg/kg

Compound: O=C(O)C1CCCN(CCCCOc2ccccc2/C=C/c2ccccc2)C1 (stereo not given)
- inhibition in vivo at 50 mg/kg (Mus musculus [2]): 12.5%

Compound: COC(=O)C1CCCN(CCCCOc2ccccc2/C=C/c2ccccc2)C1 (stereo not given)
- inhibition in vivo at 50 mg/kg (Mus musculus [2]): 0%

Compound: C(=C\c1ccccc1OCCCCN1CCOCC1)/c1ccccc1
- inhibition in vivo at 50 mg/kg (Mus musculus [2]): 14.3%
- inhibition in vivo at 50 mg/kg (Mus musculus [1]): 87.5%

Compound: CNCCCCOc1ccccc1/C=C/c1ccccc1.Cl
- ED50 (Mus musculus [6]): 118 mg/kg

Compound: Cc1ccccc1/C=C/c1ccccc1OCCCCN(C)C
- inhibition in vivo at 50 mg/kg (Mus musculus [1]): 16.7%

Compound: COc1ccccc1/C=C/c1ccccc1OCCCCN(C)C
- inhibition in vivo at 50 mg/kg (Mus musculus [2]): 0%
- inhibition in vivo at 50 mg/kg (Mus musculus [1]): 62.5%

Compound: C(=C\c1ccccc1OCCCCN1CCCCC1)/c1ccccc1
- inhibition in vivo at 50 mg/kg (Mus musculus [3]): 100%
- inhibition in vivo at 50 mg/kg (Mus musculus [2]): 42.9%

Compound: CCCN(CCC)CCCCOc1ccccc1/C=C/c1ccccc1
- inhibition in vivo at 50 mg/kg (Mus musculus [2]): 0%

Compound: C(=C\c1ccccc1OCCCCN1CCCC1)/c1ccccc1
- inhibition in vivo at 50 mg/kg (Mus musculus [2]): 42.9%
- inhibition in vivo at 50 mg/kg (Mus musculus [1]): 87.5%

Compound: CCN(CC)CCCCOc1ccccc1/C=C/c1ccccc1.Cl
- ED50 (Mus musculus [6]): 82 mg/kg
- ED50 (Mus musculus [8]): 11.5 mg/kg

Compound: CN(C)CCCCOc1ccccc1/C=C/c1ccc(F)cc1.Cl
- inhibition in vivo at 100 mg/kg (Mus musculus [4]): 14.3%
- ED50 (Mus musculus [8]): 15.4 mg/kg

Compound: COC1CCCN(CCCCOc2ccccc2/C=C/c2ccc(F)cc2)C1 (stereo not given)
- inhibition in vivo at 50 mg/kg (Mus musculus [2]): 12.5%

Compound: CN(C)CCN(C)CCCCOc1ccccc1/C=C/c1ccccc1
- inhibition in vivo at 50 mg/kg (Mus musculus [2]): 0%

Compound: CC(=O)N1CCN(CCCCOc2ccccc2/C=C/c2ccccc2)CC1
- inhibition in vivo at 50 mg/kg (Mus musculus [2]): 0%
- inhibition in vivo at 50 mg/kg (Mus musculus [1]): 12.5%

Compound: C(=C\c1ccccc1OCCCCN1CCNCC1)/c1ccccc1
- inhibition in vivo at 50 mg/kg (Mus musculus [2]): 0%
- inhibition in vivo at 50 mg/kg (Mus musculus [1]): 0%

Compound: CN(C)CCCCOc1ccc(/C=C/c2ccccc2)cc1
- inhibition in vivo at 50 mg/kg (Mus musculus [2]): 12.5%

Compound: CN(C)CCOc1ccccc1/C=C/c1ccccc1
- inhibition in vivo at 50 mg/kg (Mus musculus [3]): 75%

Compound: CCCN1CCN(CCCCOc2ccccc2/C=C/c2ccccc2)CC1
- inhibition in vivo at 50 mg/kg (Mus musculus [2]): 42.9%
- inhibition in vivo at 50 mg/kg (Mus musculus [1]): 87.5%

Compound: CN(C)CCCCOc1cccc(/C=C/c2ccccc2)c1
- inhibition in vivo at 50 mg/kg (Mus musculus [2]): 0%

Compound: CCN1CCN(CCCCOc2ccccc2/C=C/c2ccccc2)CC1
- inhibition in vivo at 50 mg/kg (Mus musculus [2]): 33.3%

Compound: CN(C)CCCCOc1ccccc1/C=C/c1cccc(Cl)c1
- inhibition in vivo at 50 mg/kg (Mus musculus [2]): 14.3%
- inhibition in vivo at 50 mg/kg (Mus musculus [1]): 23.9%

Compound: NC(=O)C1CCCN(CCCCOc2ccccc2/C=C/c2ccccc2)C1 (stereo not given)
- inhibition in vivo at 50 mg/kg (Mus musculus [2]): 0%

Compound: CN(C)CCCCOc1ccccc1/C=C/c1ccccc1Cl
- inhibition in vivo at 50 mg/kg (Mus musculus [2]): 14.3%
- inhibition in vivo at 50 mg/kg (Mus musculus [1]): 50%

Compound: CN(C)CCCCOc1ccccc1/C=C/c1ccc(Cl)cc1
- inhibition in vivo at 50 mg/kg (Mus musculus [2]): 0%
- inhibition in vivo at 50 mg/kg (Mus musculus [1]): 62.5%

Compound: CN1CCN(CCCCOc2ccccc2/C=C/c2ccc(Cl)c(Cl)c2)CC1
- inhibition in vivo at 50 mg/kg (Mus musculus [2]): 0%
- inhibition in vivo at 50 mg/kg (Mus musculus [1]): 0%

Compound: CN1CCN(CCCCOc2ccccc2/C=C/c2cccc(Cl)c2)CC1
- inhibition in vivo at 50 mg/kg (Mus musculus [2]): 0%
- inhibition in vivo at 50 mg/kg (Mus musculus [1]): 50%

Compound: OC1CCCN(CCCCOc2ccc(Cl)cc2/C=C/c2ccccc2)C1 (stereo not given)
- inhibition in vivo at 50 mg/kg (Mus musculus [2]): 12.5%

Compound: COc1cccc(/C=C/c2ccccc2)c1OCCCCN(C)C
- inhibition in vivo at 50 mg/kg (Mus musculus [2]): 57.1%
- ED50 (Mus musculus [8]): 21.6 mg/kg

Compound: OC1CCCN(CCCCOc2ccccc2/C=C/c2cccc(Cl)c2)C1 (stereo not given)
- inhibition in vivo at 50 mg/kg (Mus musculus [2]): 12.5%

Compound: NC(=O)N1c2ccccc2C=Cc2ccccc21 [CARBAMAZEPINE]
- ED50 (Rattus norvegicus [10]): 300 mg/kg
- ED50 (Rattus norvegicus [14]): 32 mg/kg
- Therapeutic index (Rattus norvegicus [15]): 3.75
- ED50 (Rattus norvegicus [13]): 120 mg/kg

Compound: O=C1NC(=O)C(c2ccccc2)(c2ccccc2)N1 [PHENYTOIN]
- Therapeutic index [11]: >6.25
- ED50 (Rattus norvegicus [12]): 40 mg/kg
- ED50 (Rattus norvegicus [16]): 250 mg/kg
- ED50 (Rattus norvegicus [17]): > 250 mg/kg

— ChEMBL document CHEMBL1122653, “Substituted (omega-aminoalkoxy) stilbene derivatives as a new class of anticonvulsants” (1984)
